Experimental data from ChEMBL document CHEMBL5154637, “Peptidomimetic α-Acyloxymethylketone Warheads with Six-Membered Lactam P1 Glutamine Mimic: SARS-CoV-2 3CL Protease Inhibition, Coronavirus Antiviral Activity, and in Vitro Biological Stability” (J Med Chem, 2022).

Tests used:
[1] = Metabolic stability in human plasma measured at 2 hrs by LC-MS analysis; type: ADME, cell-free; details: read-out: Stability
[2] = Metabolic stability in human plasma assessed as half life measured upto 2 hrs by LC-MS analysis; type: ADME, cell-free
Cathepsin B [3] = biological target: T1, Cathepsin B (Homo sapiens, UniProt P07858); test: Inhibition of human cathepsin B at 1 uM incubated for 30 mins by fluorometric analysis
Cathepsin S [4] = biological target: T2, Cathepsin S (Homo sapiens, UniProt P25774); test: Inhibition of human cathepsin S at 1 uM incubated for 30 mins by fluorometric analysis
Target sequence in this assay (P25774 115-331 limits assumed): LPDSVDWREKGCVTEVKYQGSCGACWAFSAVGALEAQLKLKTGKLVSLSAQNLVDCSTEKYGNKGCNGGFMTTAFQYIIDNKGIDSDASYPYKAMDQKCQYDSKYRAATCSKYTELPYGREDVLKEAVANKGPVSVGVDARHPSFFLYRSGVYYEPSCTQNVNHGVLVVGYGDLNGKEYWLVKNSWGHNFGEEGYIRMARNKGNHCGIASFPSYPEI

[5] = Dissociation constant, pKa of the compound; type: physicochemical
SARS-CoV-2 = test: microbe, parasite or virus in culture; details: Severe acute respiratory syndrome coronavirus 2, Vero C1008, 48 h
[6] = biological target: Replicase polyprotein 1ab (Severe acute respiratory syndrome coronavirus 2, UniProt P0DTD1); test: Inhibition of SARS-CoV-2 3CL protease incubated for 30 mins by FRET assay
in vitro [7] = details: chlorocebus sabaeus, Vero E6 cells
in vitro [8] = details: human, A549 cells
[9] = Antiviral activity against Human coronavirus OC43 infected in human Huh-7 cells assessed as reduction in virus-induced cytopathic effect incubated for 7 days by Celltiter-Glo assay; type: functional, cell-based; details: Betacoronavirus 1, OC43, Huh-7, 168 h
[10] = Cytotoxicity against human MRC5 cells assessed as reduction in cell viability incubated for 24 hrs by Celltiter-glo luminescent cell viability assay; type: toxicity, cell-based
[11] = Cytotoxicity against human Huh-7 cells assessed as reduction in cell viability incubated for 24 hrs by Celltiter-glo luminescent cell viability assay; type: toxicity, cell-based
Human coronavirus 229E = test: Antiviral activity against Human coronavirus 229E infected in human MRC5 cells assessed as reduction in virus-induced cytopathic effect incubated for 3 days by Celltiter-Glo assay; type: functional, organism-based; details: MRC5, 72 h
[12] = Stability in CD-1 mouse plasma assessed as half life at 2 uM measured upto 120 mins by LC-MS/MS analysis; type: ADME, cell-free
[13] = Microsomal stability in CD-1 mouse liver microsomes assessed as half life at 1 uM measured upto 60 mins in presence of NADPH by LC-MS/MS analysis; type: ADME, Microsome; details: CD-1, mouse, liver microsomes
[14] = Metabolic stability in CD-1 mouse Hepatocytes assessed as half life at 3 uM measured upto 90 mins by LC-MS/MS analysis; type: ADME, cell-based, Hepatocyte; details: CD-1, mouse
[15] = Lipophilicity, log D of the compound at phosphate buffer pH 7.4 by shake flask method based LC-MS/MS analysis; type: physicochemical
[16] = Apparent permeability from basolateral to apical side in human Caco-2 cells at 2 uM with pH 7.4 incubated for 2 hrs by LC-MS analysis; type: ADME, cell-based; details: Caco-2, pH 7.4
[17] = Selectivity index, ratio of CC50 for cytotoxicity against African green monkey VeroE6 cells assessed as reduction in cell viability to EC50 for antiviral activity against SARS-CoV-2 3CL protease; type: toxicity, cell-based; details: read-out: Ratio CC50/EC50
Cathepsin S [18] = biological target: T2, Cathepsin S; test: Inhibition of human cathepsin S incubated for 30 mins by fluorometric analysis
Target sequence in this assay (P25774 whole entry): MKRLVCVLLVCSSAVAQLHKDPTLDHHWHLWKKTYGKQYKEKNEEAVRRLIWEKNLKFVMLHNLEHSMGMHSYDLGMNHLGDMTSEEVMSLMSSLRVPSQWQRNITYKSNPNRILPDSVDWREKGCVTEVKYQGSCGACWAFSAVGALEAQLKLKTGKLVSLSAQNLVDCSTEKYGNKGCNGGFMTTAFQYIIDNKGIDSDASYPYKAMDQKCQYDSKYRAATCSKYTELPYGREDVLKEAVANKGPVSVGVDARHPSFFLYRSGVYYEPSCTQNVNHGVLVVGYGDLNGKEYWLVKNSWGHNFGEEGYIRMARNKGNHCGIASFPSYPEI

[19] = Selectivity index, ratio of CC50 for cytotoxicity against human A549 cells assessed as reduction in cell viability to EC50 for antiviral activity against SARS-CoV-2 3CL protease; type: toxicity, cell-based; details: read-out: Ratio CC50/EC50
Cathepsin B [20] = biological target: T1, Cathepsin B; test: Inhibition of human cathepsin B incubated for 30 mins by fluorometric analysis
in vitro [21] = details: human, Huh-7 cells

Compound | remaining at 2 h [1] | inhibition (Cathepsin B [3]) | inhibition (Cathepsin S [4]) | pKa [5] | EC50 (SARS-CoV-2) | IC50 [6] | CC50 at 24 h (in vitro [7]) | CC50 at 24 h (in vitro [8]) | EC50 [9] | CC50 at 24 h [10] | CC50 at 24 h [11] | EC50 (Human coronavirus 229E) | other results
COc1cccc2[nH]c(C(=O)N[C@@H](CC(C)C)C(=O)N[C@@H](C[C@@H]3CCCNC3=O)C(=O)COC(=O)c3ccccc3)cc12 | 67% | 16.2% | 41% | 4.2 | > 10 µM |  |  |  |  |  |  |  | half-life [2]: 209 min
CC(=O)OCC(=O)[C@H](C[C@@H]1CCNC1=O)NC(=O)[C@H](CC(C)C)NC(=O)OCc1cccc(Cl)c1 |  |  |  |  | 21.5 µM | 1.5 µM | > 200 µM | > 200 µM |  |  |  |  | 
COc1cccc2[nH]c(C(=O)N[C@@H](CC(C)C)C(=O)N[C@@H](C[C@@H]3CCNC3=O)C(=O)COC(=O)c3c(C(F)(F)F)cc(C)nc3C)cc12 |  |  |  |  |  |  | > 200 µM | > 201 µM | 0.033 µM | > 100 µM | 44.9 µM | 0.013 µM | half-life at 2 µM [12]: > 289 min; half-life at 1 µM [13]: 1.1 min; half-life at 3 µM [14]: 1.9 min; logD [15]: 4.57; Papp B→A at 2 h, 2 µM [16]: 24.3 ×10⁻⁶ cm/s
COc1cccc2[nH]c(C(=O)N[C@@H](CC(C)C)C(=O)N[C@@H](C[C@@H]3CCCNC3=O)C(=O)COC(=O)c3c(C)nc(C)nc3C)cc12 |  |  |  | 2 |  |  | > 200 µM | > 200 µM |  |  |  |  | 
COc1cccc2[nH]c(C(=O)N[C@@H](CC(C)C)C(=O)N[C@@H](C[C@@H]3CCCNC3=O)C(=O)COC(=O)C3(C(F)(F)F)CCCCC3)cc12 | 97% | 38.6% | 84.2% | 3.4 | 0.6 µM |  | > 200 µM | > 200 µM | 0.395 µM | > 100 µM | > 100 µM | 0.196 µM | selectivity ratio [17]: > 333; IC50 (Cathepsin S [18]): 0.444 µM; selectivity ratio [19]: > 333; IC50 (Cathepsin B [20]): 2.85 µM
COc1cccc2[nH]c(C(=O)N[C@@H](CC(C)C)C(=O)N[C@@H](C[C@@H]3CCCNC3=O)C(=O)COC(=O)c3ccccn3)cc12 |  |  |  | 0.99 | > 10 µM | 0.126 µM |  |  |  |  |  |  | 
COc1cccc2[nH]c(C(=O)N[C@@H](CC(C)C)C(=O)N[C@@H](C[C@@H]3CCCNC3=O)C(=O)COC(=O)c3c(C)nn(C)c3C)cc12 |  |  |  | 2.2 | > 10 µM | 0.0715 µM |  |  |  |  |  |  | 
CCC(CC)COC(=O)[C@H](C)N[P@](=O)(OC[C@H]1O[C@@](C#N)(c2ccc3c(N)ncnn23)[C@H](O)[C@@H]1O)Oc1ccccc1 |  |  |  |  |  |  |  |  | 0.02 µM | > 100 µM | 10.4 µM | 0.035 µM | selectivity ratio (in vitro [21]): 518
COc1cccc2[nH]c(C(=O)N[C@@H](CC(C)C)C(=O)N[C@@H](C[C@@H]3CCCNC3=O)C(=O)CO)cc12 |  | 26.5% | 60.8% |  | 10.1 µM | 0.0195 µM | > 200 µM | > 200 µM |  |  |  |  | 
COc1cccc2[nH]c(C(=O)N[C@@H](CC(C)C)C(=O)N[C@@H](C[C@@H]3CCCNC3=O)C(=O)COC(=O)c3cccnc3)cc12 | 2% |  |  | 2 | > 10 µM |  |  |  |  |  |  |  | half-life [2]: < 15 min
